# Results reported in PMC6842095 (Neuropharmacology, 2019).
# Where “and” joins values, the source holds several entries; their conditions need not be identical. Equal entries are not always repeated. Where two headings read alike, the source gives them in different places.
# Columns and labels:
# [1] = target: T1, α4 GREFP β4 AChR (Homo sapiens, UniProt P30926+P43681, I229P/K186G/K222F/T220E/Y218R)
# [2] = target: T2, α2 GFEP β4 AChR (Homo sapiens, UniProt P30926+Q15822, D246E/I251P/K208G/K244F); experiment: cell-based
# [3] = target: T2, α2 GFEP β4 AChR
# [4] = target: T3, α3 GFEP β4 AChR (Homo sapiens, UniProt P30926+P32297, I227P/K184G/K220F/N222E)
# [5] = target: T4, α4 GREFP β2 AChR (Homo sapiens, UniProt P17787+P43681, I229P/K186G/K222F/T220E/Y218R); type: binding
# [6] = target: T4, α4 GREFP β2 AChR; experiment: Time course of ^125I-α-BTX dissociation; type: binding
# [7] = target: α7 AChR (Homo sapiens, UniProt P36544); type: binding
# [8] = target: α2 GFEP β2 AChR (Homo sapiens, UniProt P17787+Q15822, D246E/I251P/K208G/K244F); type: binding
# [9] = target: wild type α4β2 AChR (Homo sapiens, UniProt P17787+P43681); type: binding
# [10] = target: T3, α3 GFEP β4 AChR; experiment: Time course of ^125I-α-BTX dissociation; type: binding
# [11] = target: muscle AChR (α1, β, ε, δ) (Homo sapiens, UniProt P02708+Q04844+Q07001); type: binding
# [12] = target: T1, α4 GREFP β4 AChR; experiment: Time course of ^125I-α-BTX dissociation; type: binding
# [13] = target: T2, α2 GFEP β4 AChR; experiment: Time course of ^125I-α-BTX dissociation; type: binding
# T3 sequence (P32297 32-505 K184G/K220F/N222E/I227P): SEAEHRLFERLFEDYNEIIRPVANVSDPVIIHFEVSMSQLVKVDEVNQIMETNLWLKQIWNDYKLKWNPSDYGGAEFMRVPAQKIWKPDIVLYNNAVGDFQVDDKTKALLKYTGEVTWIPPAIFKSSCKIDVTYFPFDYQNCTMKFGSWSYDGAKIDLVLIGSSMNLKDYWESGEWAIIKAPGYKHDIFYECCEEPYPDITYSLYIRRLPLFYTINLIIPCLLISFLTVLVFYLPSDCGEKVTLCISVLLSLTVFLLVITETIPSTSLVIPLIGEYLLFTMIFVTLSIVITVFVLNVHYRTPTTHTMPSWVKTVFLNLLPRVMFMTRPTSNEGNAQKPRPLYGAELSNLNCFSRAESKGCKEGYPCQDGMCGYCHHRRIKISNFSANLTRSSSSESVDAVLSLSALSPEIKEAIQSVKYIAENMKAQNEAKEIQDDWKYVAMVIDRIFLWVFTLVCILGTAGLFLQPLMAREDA
# T3 sequence (P30926 22-498, stated change not applied): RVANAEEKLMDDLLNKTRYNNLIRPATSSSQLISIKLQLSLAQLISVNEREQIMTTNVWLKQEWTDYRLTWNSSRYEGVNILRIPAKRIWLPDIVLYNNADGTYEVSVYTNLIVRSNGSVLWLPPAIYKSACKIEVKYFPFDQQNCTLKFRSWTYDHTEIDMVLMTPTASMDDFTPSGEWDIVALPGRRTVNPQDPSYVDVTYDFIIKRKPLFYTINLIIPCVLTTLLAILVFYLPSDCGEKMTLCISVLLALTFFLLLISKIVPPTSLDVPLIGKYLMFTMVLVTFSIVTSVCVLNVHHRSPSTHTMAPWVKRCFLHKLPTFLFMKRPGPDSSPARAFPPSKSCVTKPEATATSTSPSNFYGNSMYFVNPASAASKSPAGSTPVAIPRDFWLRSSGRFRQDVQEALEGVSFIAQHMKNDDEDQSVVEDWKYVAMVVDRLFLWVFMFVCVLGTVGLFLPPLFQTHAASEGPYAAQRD
# T4 sequence (P43681 29-627 K186G/Y218R/T220E/K222F/I229P): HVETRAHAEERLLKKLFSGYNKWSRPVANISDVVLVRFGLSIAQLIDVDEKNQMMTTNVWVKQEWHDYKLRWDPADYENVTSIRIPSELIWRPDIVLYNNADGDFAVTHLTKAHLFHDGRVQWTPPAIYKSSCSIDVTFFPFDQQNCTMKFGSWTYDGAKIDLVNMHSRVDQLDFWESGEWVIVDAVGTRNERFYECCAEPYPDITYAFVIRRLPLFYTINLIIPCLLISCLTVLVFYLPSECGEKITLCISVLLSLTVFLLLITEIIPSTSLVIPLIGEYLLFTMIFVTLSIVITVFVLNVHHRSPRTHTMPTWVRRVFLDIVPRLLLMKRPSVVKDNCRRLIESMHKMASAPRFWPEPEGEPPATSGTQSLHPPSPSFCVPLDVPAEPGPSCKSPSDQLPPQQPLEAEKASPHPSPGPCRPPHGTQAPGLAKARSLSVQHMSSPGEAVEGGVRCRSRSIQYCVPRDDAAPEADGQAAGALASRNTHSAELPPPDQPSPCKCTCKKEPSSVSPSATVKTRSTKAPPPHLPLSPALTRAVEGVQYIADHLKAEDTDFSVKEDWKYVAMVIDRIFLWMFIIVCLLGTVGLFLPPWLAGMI
# T4 sequence (P17787 26-502, stated change not applied): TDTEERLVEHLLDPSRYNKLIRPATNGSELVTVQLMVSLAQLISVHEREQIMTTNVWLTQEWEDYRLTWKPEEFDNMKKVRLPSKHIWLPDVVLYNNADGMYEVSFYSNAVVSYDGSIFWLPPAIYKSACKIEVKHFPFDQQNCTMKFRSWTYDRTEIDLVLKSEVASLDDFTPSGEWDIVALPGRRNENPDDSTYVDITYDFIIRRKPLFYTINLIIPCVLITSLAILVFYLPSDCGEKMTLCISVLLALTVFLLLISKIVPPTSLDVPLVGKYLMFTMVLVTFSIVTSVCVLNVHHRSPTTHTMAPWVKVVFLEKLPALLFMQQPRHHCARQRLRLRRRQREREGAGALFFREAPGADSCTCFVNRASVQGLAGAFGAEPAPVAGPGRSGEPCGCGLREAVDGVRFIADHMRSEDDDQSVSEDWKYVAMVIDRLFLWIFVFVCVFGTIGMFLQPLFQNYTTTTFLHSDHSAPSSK
# T1 sequence (P30926 22-498): as the sequence (P30926 22-498, stated change not applied) above
# T1 sequence (P43681 29-627 K186G/Y218R/T220E/K222F/I229P): as the sequence (P43681 29-627 K186G/Y218R/T220E/K222F/I229P) above
# T2 sequence (P30926 22-498, stated change not applied): as the sequence (P30926 22-498, stated change not applied) above
# T2 sequence (Q15822 27-529 K208G/K244F/D246E/I251P): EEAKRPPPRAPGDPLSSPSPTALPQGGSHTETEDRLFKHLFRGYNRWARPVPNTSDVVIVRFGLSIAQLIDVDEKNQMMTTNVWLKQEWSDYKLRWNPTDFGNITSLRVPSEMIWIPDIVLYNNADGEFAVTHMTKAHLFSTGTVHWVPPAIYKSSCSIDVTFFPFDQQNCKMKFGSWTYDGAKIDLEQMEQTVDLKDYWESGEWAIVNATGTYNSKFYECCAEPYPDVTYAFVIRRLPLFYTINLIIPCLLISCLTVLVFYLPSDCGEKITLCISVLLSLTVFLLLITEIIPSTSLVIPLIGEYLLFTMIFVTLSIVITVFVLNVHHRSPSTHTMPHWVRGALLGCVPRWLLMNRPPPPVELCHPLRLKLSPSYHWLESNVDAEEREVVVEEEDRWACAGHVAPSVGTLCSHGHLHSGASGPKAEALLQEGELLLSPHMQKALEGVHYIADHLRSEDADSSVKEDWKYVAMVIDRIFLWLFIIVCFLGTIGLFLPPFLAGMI
# Sequence of α2 GFEP β2 AChR (P17787 26-502 limits assumed, stated change not applied): as the sequence (P17787 26-502, stated change not applied) above
# Sequence of α2 GFEP β2 AChR (Q15822 27-529 K208G/K244F/D246E/I251P limits assumed, stated change not applied): as the sequence (Q15822 27-529 K208G/K244F/D246E/I251P) above
# Sequence of α7 AChR (P36544 23-502 limits assumed): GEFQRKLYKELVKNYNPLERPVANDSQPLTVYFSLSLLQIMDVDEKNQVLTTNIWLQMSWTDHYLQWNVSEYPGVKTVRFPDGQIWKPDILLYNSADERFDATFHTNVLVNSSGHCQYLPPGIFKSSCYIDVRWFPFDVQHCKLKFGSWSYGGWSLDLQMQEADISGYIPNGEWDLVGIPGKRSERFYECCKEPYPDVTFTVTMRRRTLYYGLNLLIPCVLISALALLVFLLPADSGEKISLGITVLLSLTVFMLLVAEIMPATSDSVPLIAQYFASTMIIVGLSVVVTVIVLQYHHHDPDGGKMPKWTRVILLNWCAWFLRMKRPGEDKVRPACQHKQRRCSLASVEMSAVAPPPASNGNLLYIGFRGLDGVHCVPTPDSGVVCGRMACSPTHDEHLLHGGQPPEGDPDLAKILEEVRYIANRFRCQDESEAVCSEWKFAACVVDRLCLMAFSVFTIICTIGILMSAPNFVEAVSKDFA
# Sequence of muscle AChR (α1, β, ε, δ) (P02708 21-457 limits assumed): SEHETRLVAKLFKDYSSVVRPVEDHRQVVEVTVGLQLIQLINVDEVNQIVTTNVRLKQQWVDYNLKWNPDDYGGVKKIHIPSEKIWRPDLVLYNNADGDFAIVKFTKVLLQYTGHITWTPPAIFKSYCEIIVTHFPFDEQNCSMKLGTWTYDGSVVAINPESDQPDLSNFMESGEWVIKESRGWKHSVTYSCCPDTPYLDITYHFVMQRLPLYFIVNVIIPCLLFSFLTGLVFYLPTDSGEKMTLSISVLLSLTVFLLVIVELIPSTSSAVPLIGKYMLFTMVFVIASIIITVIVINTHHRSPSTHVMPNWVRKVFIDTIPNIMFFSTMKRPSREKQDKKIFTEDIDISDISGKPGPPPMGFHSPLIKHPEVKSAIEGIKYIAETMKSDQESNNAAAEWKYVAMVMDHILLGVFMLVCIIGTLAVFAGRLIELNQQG
# Sequence of muscle AChR (α1, β, ε, δ) (Q04844 21-493 limits assumed): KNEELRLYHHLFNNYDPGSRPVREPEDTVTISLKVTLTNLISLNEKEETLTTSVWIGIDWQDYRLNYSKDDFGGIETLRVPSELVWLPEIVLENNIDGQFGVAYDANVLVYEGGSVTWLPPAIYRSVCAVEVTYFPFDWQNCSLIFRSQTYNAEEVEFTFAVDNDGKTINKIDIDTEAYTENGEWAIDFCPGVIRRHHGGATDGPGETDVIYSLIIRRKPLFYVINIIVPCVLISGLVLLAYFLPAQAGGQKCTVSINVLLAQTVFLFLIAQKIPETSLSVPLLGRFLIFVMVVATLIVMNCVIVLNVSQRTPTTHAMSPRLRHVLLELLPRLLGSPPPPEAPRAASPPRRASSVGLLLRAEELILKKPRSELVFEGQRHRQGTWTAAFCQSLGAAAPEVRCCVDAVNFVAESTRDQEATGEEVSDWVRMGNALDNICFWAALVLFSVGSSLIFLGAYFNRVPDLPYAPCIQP
# Sequence of muscle AChR (α1, β, ε, δ) (Q07001 22-517 limits assumed): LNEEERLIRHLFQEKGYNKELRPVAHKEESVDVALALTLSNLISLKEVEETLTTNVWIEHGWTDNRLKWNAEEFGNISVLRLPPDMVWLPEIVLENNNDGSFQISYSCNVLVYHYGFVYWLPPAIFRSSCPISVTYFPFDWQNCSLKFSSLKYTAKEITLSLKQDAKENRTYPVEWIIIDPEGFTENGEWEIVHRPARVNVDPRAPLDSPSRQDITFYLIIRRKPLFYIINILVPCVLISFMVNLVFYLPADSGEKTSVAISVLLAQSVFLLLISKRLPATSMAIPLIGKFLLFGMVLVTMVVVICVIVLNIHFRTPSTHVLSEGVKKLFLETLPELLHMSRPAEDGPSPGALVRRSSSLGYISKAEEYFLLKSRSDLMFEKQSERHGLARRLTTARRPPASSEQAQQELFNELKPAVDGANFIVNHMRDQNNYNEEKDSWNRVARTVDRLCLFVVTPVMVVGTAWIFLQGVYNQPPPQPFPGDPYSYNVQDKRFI
compound,measurement,setting,value
"CN1CCC[C@H]1c1cccnc1 [Nicotine, (−)nicotine]",nH (Hill coefficient),[1],0.80 ± 0.1
same,Kd,[2],210 nM
same,nH (Hill coefficient),[3],0.96 ± 0.1
same,nH (Hill coefficient),[4],0.75 ± 0.1
same,nH (Hill coefficient),[5],1.4 ± 0.1
"Clc1ccc(C2CC3CCC2N3)cn1 (racemic) [Epibatidine, (±) epibatidine]",nH (Hill coefficient),"[5]; α4 GREFP + β2, ± S.E.",1.3 ± 0.1
"CC(=O)OCC[N+](C)(C)C [ACh, Acetylcholine]",nH (Hill coefficient),[5],0.81 ± 0.07
α-bungarotoxin [α-BTX],Half-life,[6],12.6 h
same,dissociation constant from ratio of dissociation to association rate constants,[6],0.3 nM
same,kdissoc,[6],1.5 × 10^−5 s^−1 and 1.5 ± 0.2 × 10^−5 s^−1
same,Half-life,[7],133 h
same,kdissoc,[7],1.5 ± 0.3 × 10^−6 s^−1
same,Half-life,[8],6.0 h
same,kdissoc,[8],3.2 ± 0.3 × 10^−5 s^−1
same,affinity for the toxin (ratio of total to nonspecific binding close to one),[9],negligible affinity
same,Half-life,[10],77 h
same,kdissoc,[10],2.5 ± 0.9 × 10^−6 s^−1
same,Half-life,[11],5.4 h
same,kdissoc,[11],3.5 ± 0.4 × 10^−5 s^−1
same,Half-life,[12],19 h
same,kdissoc,[12],1.0 ± 0.1 × 10^−5 s^−1
same,Half-life,[13],9.6 h
same,kdissoc,[13],2.0 ± 0.3 × 10^−5 s^−1
